Patent publication US10597403B2, “Condensed cyclic compound, composition including the condensed cyclic compound, organic light-emitting device including the condensed cyclic compound, and method of manufacturing the organic light-emitting device” (SAMSUNG ELECTRONICS CO., LTD., priority 2015, dated 2020)

Experiments:
[1] = Measurement of solubility in xylene; type: physicochemical; conditions: for solubility: result in words; for solubility / Solubility (xylene): solvent xylene
Protocol: (§1) The glass transition temperature (Tg) and solubility of Compounds 1-5, 1-23, 1-24, and 1-79 were measured. In measuring the solubility, xylene was used as a solvent. The glass transition temperature (Tg) and solubility of each compound is written under each compound number.

[2] = Measurement of glass transition temperature (Tg), scanning calorimetry, JIS K 7121, SII DSC6220; type: physicochemical; conditions: for heat resistance: result in words, from Tg
Protocol: The glass transition temperature may be measured by a method defined in JIS K 7121 or ISO 3146 corresponding thereto. In the following examples, the glass transition temperature was measured by a scanning calorimetric measurement method.
In an argon atmosphere, 2.20 g (5.52 mmol) of Intermediate a, 3.30 g (4.97 mmol) of Intermediate b, 0.078 g (0.11 mmol) of dichlorobis(triphenylphosphine)dipalladium, 55 mL of dioxane, and 28 mL of a 0.5 N sodium carbonate aqueous solution were added to a reaction vessel, and the mixture was stirred at a temperature of 90° C. for 8 hours. After the reaction was completed, the resultant mixture was cooled to room temperature and filtered by using celite. An organic layer obtained therefrom was concentrated and purified by column chromatography, thereby completing the preparation of Compound 1-7 (synthesized amount: 2.97 g, yield: 69.9%) (the structure thereof was identified by LC-MS). A measurement of a glass transition temperature (Tg) was performed based on JIS K 7121 by using SII DSC6220 (manufactured by Seiko Instruments Inc.).
as §1

Row | Compound | solubility [1] | heat resistance [2] | Solubility (xylene) [1] [wt %] | Tg (glass transition temperature) ([2]; JIS K 7121, SII DSC6220) [°C] | soluble in a hydrocarbon-based solvent ([1]; toluene or xylene)
1 | c1ccc(-c2cc(-c3ccccc3)cc(-c3cccc(-c4cc(-c5ccccc5)nc(-c5cccc(-c6cccc7c6c6cc(-c8ccccc8)ccc6n7-c6ccccc6)c5)n4)c3)c2)cc1 [Compound 1-5] | excellent | excellent | – | – | –
2 | c1ccc(-c2cc(-c3ccccc3)cc(-c3cccc(-n4c5ccccc5c5cc(-c6ccc7c(c6)c6cc(-c8ccccc8)ccc6n7-c6ccccc6)ccc54)c3)c2)cc1 [Compound 6-5] | – | – | > 10 | 156.6 | –
3 | c1ccc(-c2cc(-c3ccccc3)cc(-c3cccc(-c4nc(-c5ccccc5)nc(-c5cccc(-c6cccc7c6c6cc(-c8ccccc8)ccc6n7-c6ccccc6)c5)n4)c3)c2)cc1 [Compound 1-7] | – | – | > 10 | – | soluble
4 | c1ccc(-c2cc(-c3ccccc3)cc(-c3cccc(-c4nc(-c5ccccc5)nc(-c5cccc(-c6ccc7c(c6)c6cc(-c8ccccc8)ccc6n7-c6ccccc6)c5)n4)c3)c2)cc1 [Compound 1-79] | excellent | excellent | – | – | –
